{"source": "patent US20100009852A1", "about": "“Plant growth regulator” (priority 2008, published 2010)", "key": {"[1]": {"tested_on": "maize varieties (Cecilia and Abraxas)", "test": "Shoot growth regulation: glasshouse pot trial, plant height of 2 maize varieties", "format": "in vivo", "conditions": "for Mean plant height per pot, Mean of 8 replicates / Mean plant height per pot, single replicate: 25 days after sowing", "experimental": "Three cyprosulfamide treatment methods (1 to 3) were used in a trial designed to investigate effects on shoot development. Treatment method 1 was a seed treatment. For this, fifty seeds each of two maize varieties ([…] and Abraxas) were weighed and placed into each of 50 ml glass screw cap bottles. To one of these bottles sufficient wettable powder formulation of cyprosulfamide (20% formulation) was added to provide 1 g of cyprosulfamide per 1000 g of seed. To the second bottle the same amount of a blank formulation (same components but lacking cyprosulfamide) was added. To each bottle 10 ml of deionised water was added the caps fitted. The bottles were then placed on a shaker for 20 minutes so that the seeds were evenly coated with the formulation. For methods 2 and 3, 240 peat pots (7 cm diameter) were filled to within 3 cm of the top with steam sterilised sandy-loam soil (20% sand, 57% silt, 23% clay, pH 6.8 and 1.4% organic matter). In addition, 120 Petri dishes (10 cm diameter) were filled (1 cm depth) with the same soil. The 20% wettable powder formulation of cyprosulfamide was dispersed in de-ionised water to produce the required concentration (ppm). 120 pots (Treatment 2) and the all 120 Petri dishes (Treatment 3) were placed on “feed-belt” of a track-sprayer. The spray solution of cyprosulfamide was placed into the spray vessel and applied to the target pots/dishes at a spray volume of 300 l/ha via a flat fan nozzle. This provided a dose rate equivalent to 1000 g of cyprosulfamide per hectare soil surface. For treatment method 1, five treated maize seed were sown onto 8 replicate untreated pots and covered with untreated soil. For treatment method 2, five untreated seeds were sown onto 8 replicate treated pots and covered with untreated soil. For treatment method 3, five untreated seeds were sown onto 8 replicate untreated pots and covered using the treated soil from the Petri dishes. Control (Treatment 4) had also untreated seeds on untreated soil. The placement of cyprosulfamide as a result of these treatment methods is shown in FIG. 1 All the pots were watered and placed in a glasshouse set to 24° C.±2° C. day and 17° C.±2° C. night. The relative humidity was normally above 60%. High-pressure mercury lamps (400 W) were used to augment daylight during cloudy conditions. Pots were watered as required. 25 days after sowing the height of each plant was measured from soil surface to tip of tallest leaf which was held up against a ruler."}, "[2]": {"tested_on": "maize (Zea mays—variety Oldham)", "test": "Root growth promotion: maize germination in a soil free test system", "format": "in vivo", "conditions": "for Fresh weight of harvested roots, Mean of 4 replicates / Fresh weight of harvested roots, single replicate: 13 days after sowing, Blank WP mean 317; for Fresh weight of harvested roots, single replicate: roots of 10 seeds per container", "experimental": "8 cm round filter papers were placed in 9.5 cm square clear plastic tissue culture containers (ICN Biomedicals, Inc). The paper in each of 4 containers were wetted with 2 ml of tap water containing 2500, 1250 or 625 ppm of cyprosulfamide provided as a 20% wettable powder formulation (WP). 4 further containers were wetted with tap water containing blank WP formulation (i.e. all components except cyprosulfamide). Into each Petri dish 10 seeds of maize (Zea mays—variety Oldham) were evenly spread and the lids put in place. The Petri dishes were placed in glasshouse set to 24° C.±2° C. day and 17° C.±2° C. night. High-pressure mercury lamps (400 W) were used to augment daylight during cloudy conditions. As required, small volumes of water were added to the Petri dishes as necessary to keep the filter paper moist. After 13 days the roots from all seeds per container were harvested by cutting as close to the base as possible. The fresh weight of roots was measured immediately."}, "[3]": {"conditions": "variety Abraxas, treatment 1 = seed treatment, 1 g per 1000 g seed, untreated mean 36.0"}, "[4]": {"conditions": "variety Abraxas, treatment 2 = soil below seed, 1000 g per hectare, untreated mean 36.0"}, "[5]": {"conditions": "variety Abraxas, treatment 3 = soil above seed, 1000 g per hectare, untreated mean 36.0"}, "[6]": {"conditions": "variety Cecilia, treatment 1 = seed treatment, 1 g per 1000 g seed, untreated mean 55.3"}, "[7]": {"conditions": "variety Cecilia, treatment 2 = soil below seed, 1000 g per hectare, untreated mean 55.3"}, "[8]": {"conditions": "variety Cecilia, treatment 3 = soil above seed, 1000 g per hectare, untreated mean 55.3"}}, "note": "Where “and” joins values, the source holds several entries; their conditions need not be identical. Equal entries are not always repeated."}
{"smiles": "COc1ccccc1C(=O)NS(=O)(=O)c1ccc(C(=O)NC2CC2)cc1", "note": "[cyprosulfamide]", "values": [{"measurement": "effect on plant height (statistical analysis)", "setting": "[1]; all treatments (1 to 3) versus untreated, in Cecilia and Abraxas", "result": "significantly reduced plant height"}, {"measurement": "Mean plant height per pot, Mean of 8 replicates", "setting": "[1]; [3]", "result": 26.3, "unit": "cm"}, {"measurement": "Mean plant height per pot, single replicate", "setting": "[1]; [3]", "result": "28.2 cm and 20.8 cm and 31.6 cm and 22.6 cm and 25.2 cm and 22.2 cm and 28.8 cm and 30.6 cm"}, {"measurement": "Mean plant height per pot, Mean of 8 replicates", "setting": "[1]; [4]", "result": 33.4, "unit": "cm"}, {"measurement": "Mean plant height per pot, single replicate", "setting": "[1]; [4]", "result": "34.2 cm and 34.5 cm and 34.4 cm and 33.4 cm and 32.2 cm and 33.6 cm and 30.5 cm and 34.6 cm"}, {"measurement": "Mean plant height per pot, Mean of 8 replicates", "setting": "[1]; [5]", "result": 30.4, "unit": "cm"}, {"measurement": "Mean plant height per pot, single replicate", "setting": "[1]; [5]", "result": "25.2 cm and 26.6 cm and 29.6 cm and 32.2 cm (2×) and 31.4 cm and 32.8 cm and 33.0 cm"}, {"measurement": "Mean plant height per pot, Mean of 8 replicates", "setting": "[1]; [6]", "result": 41.2, "unit": "cm"}, {"measurement": "Mean plant height per pot, single replicate", "setting": "[1]; [6]", "result": "34.3 cm and 40.7 cm and 50.0 cm and 38.3 cm and 39.3 cm and 44.0 cm and 41.0 cm and 41.7 cm"}, {"measurement": "Mean plant height per pot, Mean of 8 replicates", "setting": "[1]; [7]", "result": 44.4, "unit": "cm"}, {"measurement": "Mean plant height per pot, single replicate", "setting": "[1]; [7]", "result": "46.0 cm (2×) and 50.0 cm and 48.2 cm and 42.8 cm and 41.7 cm and 40.6 cm and 40.3 cm"}, {"measurement": "Mean plant height per pot, Mean of 8 replicates", "setting": "[1]; [8]", "result": 47.8, "unit": "cm"}, {"measurement": "Mean plant height per pot, single replicate", "setting": "[1]; [8]", "result": "43.0 cm and 54.0 cm and 47.6 cm and 47.0 cm and 55.5 cm and 58.0 cm and 36.8 cm and 40.8 cm"}, {"measurement": "Fresh weight of harvested roots, Mean of 4 replicates", "setting": "[2]; WP + 625 ppm a.i.", "result": 620, "unit": "mg"}, {"measurement": "Fresh weight of harvested roots, single replicate", "setting": "[2]; WP + 625 ppm a.i.", "result": "587 mg and 579 mg and 547 mg and 767 mg"}, {"measurement": "Fresh weight of harvested roots, Mean of 4 replicates", "setting": "[2]; WP + 1250 ppm a.i.", "result": 838, "unit": "mg"}, {"measurement": "Fresh weight of harvested roots, single replicate", "setting": "[2]; WP + 1250 ppm a.i.", "result": "700 mg and 717 mg and 846 mg and 1087 mg"}, {"measurement": "Fresh weight of harvested roots, Mean of 4 replicates", "setting": "[2]; WP + 2500 ppm a.i.", "result": 778, "unit": "mg"}, {"measurement": "Fresh weight of harvested roots, single replicate", "setting": "[2]; WP + 2500 ppm a.i.", "result": "918 mg and 1211 mg and 634 mg and 350 mg"}, {"measurement": "root development of germinating maize seed", "setting": "[2]; in the presence of cyprosulfamide (625-2500 ppm) versus blank WP", "result": "significantly enhanced"}]}
